Read-outs that look alike come from different tables or passages of the source.
Tests used:
[1] = tested on: Male Sprague Dawley rats; experiment: Chronic inflammatory pain, intra-articular CFA in knee, weight bearing; assay type: in vivo, rat
[2] = target: human CB2 receptor (Homo sapiens (Human), UniProt P34972); experiment: [35S]GTPγS-binding assay, functional activity at the human CB2 receptor; assay type: biochemical
Procedure: Functional activity of compounds of the invention toward the cannabinoid receptors was determined by stimulation of [^35S]-GTPγS binding using membranes from HEK-293 cells expressing the hCB1 receptor and membranes expressing the hCB2 receptor derived from either Sf9 (PerkinElmer) or from HEK-293 cells. Activities were compared to that of the known cannabinoid full agonist CP55940 (Alexis). The purpose of this experiment is to determine the potency of the compounds of the invention as agonists or antagonists toward each of the receptor tested.
[^35]-GTPγS binding reactions were performed at 30° C. in 96-well plates containing 5-10 μg membrane protein suspended in 0.1 ml binding buffer (20 mM HEPES-NaOH, pH 7.4, 5 mM MgCl2, 100 mM NaCt, 0.2% (w/v) bovine serum albumin) supplemented with 50 μM GDP and 0.06 nM-10 μM of the compound being tested. Binding was initiated by the addition of [^35S]GTPγS (0.3 nM final concentration). Incubations were performed for 90 minutes and were terminated by filtration on GF/C filter plates (PerkinElmer). Filters were washed ten times with ice-cold wash buffer (20 mM HEPES-NaOH, pH 7.4, 10 mM sodium pyrophosphate). Non-specific binding was measured in the presence of 15 μM GTPγS.
Assays were performed in duplicates. Data was analyzed by plotting on the X axis the log concentration against percent of specific [^35S]GTPγS binding out of basal [^35S]GTPγS binding on the Y axis, non-linear regression is then performed using GraphPad Prism, version 3.0 (GraphPad, San Diego, Calif.) to calculate the EC50 and Emax of the compound. The EC50 value represents the concentration at which there is 50% [^35S]GTPγS binding and the Emax value the upper plateau of the curve.
CP55940 is a full agonist of the human and rat CB2 receptors. […] Full or partial agonism at the receptor was determined relative to the Emax value of CP55940.

[3] = tested on: Male Sprague Dawley rats; experiment: Thermal analgesic activity in CFA-induced inflammatory acute pain (Plantar test); assay type: in vivo, rat; conditions: one hour post daily administration, third day of treatment
Procedure: The thermal analgesic effect induced by compounds of the present invention on inflammatory acute pain was assessed. Inflammatory pain and paw edema were induced by intraplantar injection of 50% Complete Freund's Adjuvant (CFA) suspension in the animal hind paw.
Male Sprague Dawley rats (average body weight 200 g, Harlan, Israel) were transiently sedated by placement on dry ice for the duration of the injections. Rats were injected subcutaneously, in the subplantar region of one (right) paw with 0.15 ml of 50% w/v CFA in sterile saline. […] Test compounds were administered i.p. at initial single dose of 10-60 mg/kg (depending on the test compound), and volume dose of 5 ml/kg, 24 hours post CFA injection. Vehicle and Celecoxib treated animals were used as controls. Each treatment group comprised at least six animals.
Prior to, 48 hours post induction of inflammatory pain and one hour after daily drug administration, the animals reaction to pain stimuli was tested by thermal stimulus. The thermal analgesia was assessed using a Plantar test (Ugo Basile). At the end of the study, animals were euthanized.
Results, expressed as percent of baseline value (% reversal) or withdrawal latency, are depicted in FIGS. 9 and 10. […] Results are expressed as mean±SEM for each treatment group and the differences among those groups are analyzed by T-test. […]

[4] = tested on: female BALB/c mice; experiment: Dextran Sulfate Salt (DSS)-induced acute colitis; assay type: in vivo, mouse; conditions: for % Survival / Clinical score / Percentage change in body weight: i.p.
Text: In order to test the activity of compounds of the invention in an animal model of inflammatory bowel disease, female BALB/c mice 9-12 week old (Harlan, Israel) were used for Dextran Sulfate Salt (DSS)-induced acute colitis studies. Mice (ten per treatment group) were provided with a solution of tap water containing 5% DSS (MW. 36000-50000; MP Biomedicals, LLC) ad libitum over an 8 day period. The DSS solution was replenished every other day and switched to tap water at day 8. Body weight was measured daily. The clinical scores combined both macroscopic (diarrhea, body weight, mortality) as well as microscopic (pathological) scores. Diarrhea score in the studies for each animal represented the daily summary of stool consistency (scored as: 0, normal; 1, soft but still formed; 2, very soft; 3, diarrhea) and the presence of blood in stool (scored: 0, None; 1, visible blood traces in stool; 2, signs of blood; 3, rectal bleeding). At the end of experiment animals were euthanized and their colons are examined for signs of pathological damage. The pathological scores, colon length and weight were determined from the cecum to the anus (scored: 0, normal; 1, slight inflammation; 2, moderate inflammation and/or edema; 3, heavy inflammation and/or ulceration and/or edema).
Two compounds were tested in DSS-induced colitis in mice, compounds 4 and 58. […] Results are expressed as mean ± SEM for each treatment group and the differences among those groups are analyzed by T-test. Two crosshatches indicate a p value below 0.01 and three indicate a p value below 0.001. Asterisks denote statistical significant weight loss relative to animal weight in the beginning of the experiment.
Alternatively, compound 58 (30 mg/kg) was administered orally from the first day of DSS administration (day 1) until the end of the experiment (day 10).

[5] = read-out: % Activity (relative to CP55,940)
[6] = Cell line C2-4, Emax of compound divided by Emax of CP55940, read-out: % Activity (relative to CP55,940)
[7] = Cell line C2-4, upper plateau of [35S]GTPγS binding curve
[8] = Cell line C2-4, upper plateau of [35S]GTPγS binding curve, read-out: Emax (%)
[9] = Cell line C2-4, Emax of compound divided by Emax of CP55940

Chain of human CB2 receptor (P34972 whole entry): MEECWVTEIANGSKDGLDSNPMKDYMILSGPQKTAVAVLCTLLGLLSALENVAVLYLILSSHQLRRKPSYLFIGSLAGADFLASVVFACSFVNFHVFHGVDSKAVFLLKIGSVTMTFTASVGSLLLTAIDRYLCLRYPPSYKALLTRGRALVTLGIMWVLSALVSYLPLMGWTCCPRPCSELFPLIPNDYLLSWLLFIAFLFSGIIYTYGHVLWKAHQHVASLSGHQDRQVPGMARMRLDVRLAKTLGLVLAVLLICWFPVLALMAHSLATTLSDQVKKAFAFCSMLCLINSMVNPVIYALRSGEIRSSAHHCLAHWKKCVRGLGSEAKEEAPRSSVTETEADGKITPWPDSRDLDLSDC

O=S(=O)(NCC1CCOCC1)c1ccc(Nc2ccc(Cl)cc2Cl)cc1C(F)(F)F [Compound 35, 4-(2,4-Dichloro-phenylamino)-N-(tetrahydro-pyran-4-ylmethyl)-2-trifluoromethyl-benzenesulfonamide]
reversal of the CFA induced hypersensitivity (weight bearing) ([1]; 15 mg/kg, b.i.d, three days of administration): significant reversal
Emax [2]: 19%
Emax [2, 5]: 35%

CC(C)(NS(=O)(=O)c1ccc(NC2CCCCC2)cc1C(F)(F)F)C1CC1 [Compound 108, 4-Cyclohexylamino-N-(1-cyclopropyl-1-methyl-ethyl)-2-trifluoromethyl-benzenesulfonamide]
Emax [2, 6]: 49.3%
Emax (%) [2, 7]: 39%

O=S(=O)(NCC1CCOCC1)c1ccc(NC2CC3CCC2C3)cc1C(F)(F)F (stereo not drawn) [Compound 41, 4-(Bicyclo[2.2.1]hept-2-ylamino)-N-(tetrahydro-pyran-4-ylmethyl)-2-trifluoromethyl-benzenesulfonamide]
analgesic effect (% reversal) ([1]; 15 mg/kg b.i.d., day 1 and 2 post administration): 30%
Emax [2, 6]: 36%
Emax [2, 8]: 26%

CC(C)(NS(=O)(=O)c1ccc(NC2CC3CCC2C3)cc1C(F)(F)F)C1CC1 (stereo not drawn) [Compound 74, 4-(Bicyclo[2.2.1]hept-2-ylamino)-N-(1-cyclopropyl-1-methyl-ethyl)-2-trifluoromethyl-benzenesulfonamide]
Emax [2]: 30%
Emax [2, 5]: 45%

COc1ccc(Nc2ccc(S(=O)(=O)NCC3CC3)c(C(F)(F)F)c2)c(OC)c1 [Compound 44, N-cyclopropylmethyl-4-(2,4-dimethoxy-phenylamino)-2-trifluoromethyl-benzenesulfonamide]
Emax [2]: 5%
Emax [2, 5]: 9.8%

O=S(=O)(NCC1CC1)c1ccc(Nc2ccc(Cl)cc2Cl)cc1C(F)(F)F [Compound 3, N-Cyclopropylmethyl-4-(2,4-dichloro-phenylamino)-2-trifluoromethyl-benzenesulfonamide]
Emax [2]: 30%
Emax [2, 5]: 46%

CCCCCCC(C)(C)c1ccc([C@@H]2C[C@H](O)CC[C@H]2CCCO)c(O)c1 [CP55940, reference compound]
Emax [2]: 50 to 70%

O=S(=O)(NCC1CC1)c1ccc(NN2CCCCCC2)cc1C(F)(F)F [Compound 105, 4-(Azepan-1-ylamino)-N-cyclopropylmethyl-2-trifluoromethyl-benzenesulfonamide]
Emax [2]: 34%
Emax [2, 5]: 43%

O=S(=O)(NCC1CC1)c1ccc(NC2CCCCCCC2)cc1C(F)(F)F [Compound 88, 4-Cyclooctylamino-N-cyclopropylmethyl-2-trifluoromethyl-benzenesulfonamide]
Emax [2, 6]: 9.8%
Emax (%) [2, 7]: 5%

4-(Bicyclo[2.2.1]hept-2-ylamino)-N-cyclopropylmethyl-2-trifluoromethyl-benzenesulfonamide [Compound 58]
reversal of thermal pain threshold (withdrawal latency) ([3]; 30 mg/kg i.p.): reversed the pain threshold
% Survival ([4]; 10 mg/kg): 100%
Clinical score ([4]; 10 mg/kg): 4.33 ± 0.22
Percentage change in body weight ([4]; 10 mg/kg): −12.9 ± 2.6 %
mortality ([4]; 30 mg/kg orally, day 1 to day 10): not observed
clinical score over time ([4]; 30 mg/kg orally, day 1 to day 10, from day 8 until end of experiment): statistical significant amelioration
pathological score ([4]; 30 mg/kg orally, day 1 to day 10, not statistically significant versus vehicle): 1.9±0.5
% Survival ([4]; 30 mg/kg): 100%
Clinical score ([4]; 30 mg/kg): 4.58 ± 0.2
Percentage change in body weight ([4]; 30 mg/kg): −13.9 ± 2.3 %
efficacy in DSS-induced colitis (weight loss, clinical signs or gross pathology) ([4]; administered intraperitoneally): modest efficacy
% Activity (relative to CP55,940) [2, 9]: 40%
Emax (%) [2, 7]: 29%

N-Cyclopropylmethyl-4-(piperidin-1-ylamino)-2-trifluoromethyl-benzenesulfonamide [Compound 94]
reversal of thermal pain threshold (percent of baseline value, % reversal) ([3]; 60 mg/kg i.p.): reversed the pain threshold
% Activity (relative to CP55,940) [2, 9]: 30%
Emax (%) [2, 7]: 20%

O=S(=O)(NCC1CC1)c1ccc(NC2CCCCCC2)cc1C(F)(F)F [Compound 87, 4-Cycloheptylamino-N-cyclopropylmethyl-2-trifluoromethyl-benzenesulfonamide]
Emax [2]: 21%
Emax [2, 5]: 29%

O=S(=O)(NCC1CCCO1)c1ccc(NC2CC3CCC2C3)cc1C(F)(F)F (stereo not drawn) [Compound 26, 4-(Bicyclo[2.2.1]hept-2-ylamino)-N-(tetrahydro-furan-2-ylmethyl)-2-trifluoromethyl-benzenesulfonamide]
Emax [2, 6]: 35%
Emax [2, 8]: 19%
